Experimental data reported in patent EP2915814A2, “Crystalline salts of sitagliptin” (priority 2008, dated 2010).
Structures can show the parent of a compound that is named as a salt. Marks after values point to notes of the source that are not given here.

How the values were obtained:
[1] = Stability studies (storage at 60 °C in closed bottles or at 40 °C / 75 % RH in an open bottle; related substances by HPLC); settings: for Related Substances 2 W 40°C/75 % RH open / Related Substances 2 W 60°C closed: 2 weeks, 20160 min; for Related Substances 4 w 40°C/75 % RH closed / Related Substances 4 w 40°C/75 % RH open / Related Substances 4 w 60°C Closed bottle: 4 weeks, 40320 min; for Related Substances 12 weeks 40°C/75 % RH closed bottle / Related Substances 12 weeks 40°C/75 % RH open bottle: 120960 min; for Initial Related Substances: before storage
[2] = Hygroscopicity studies (water content after storage at 43 %, 75 % and 93 % relative humidity); format: physicochemical; settings: for Hygroscopicity 2 weeks 43 % rh: 2 weeks at 43 % rh; for Hygroscopicity 2 weeks 43 % rh / Hygroscopicity 2 weeks 75 % rh / Hygroscopicity 2 weeks 93 % rh: % Equilibrium moisture content, ss = semi solid state of sample, β = solid first changed into liquid and solidified again; for Hygroscopicity 2 weeks 75 % rh: 2 weeks at 75 % rh; for Hygroscopicity 2 weeks 93 % rh: 2 weeks at 93 % rh; for Initial water content: initial sample; for change during the hygroscopicity studies: 43 %, 75 % and 93 % relative humidity, confirmed by DSC of samples kept at 93 % relative humidity for 2 weeks
Description: The salts of the present invention and the free base were studied under three different humidity conditions (43 % relative humidity, 75 % relative humidity, and 93 % relative humidity).

[3] = closed bottle, four weeks at 60 °C
[4] = closed bottle, two weeks at 60 °C
[5] = open bottle, twelve weeks at 40 °C and 75 % RH

SMILES | Related Substances 2 W 40°C/75 % RH open [1] | Related Substances 2 W 60°C closed [1] | Related Substances 4 w 40°C/75 % RH closed [1] | Related Substances 4 w 40°C/75 % RH open [1] | Related Substances 4 w 60°C Closed bottle ([1]; closed bottle) | Related Substances 12 weeks 40°C/75 % RH closed bottle ([1]; closed bottle) | Related Substances 12 weeks 40°C/75 % RH open bottle ([1]; open bottle) | Initial Related Substances [1] | Hygroscopicity 2 weeks 43 % rh [2] | Hygroscopicity 2 weeks 75 % rh [2] | Hygroscopicity 2 weeks 93 % rh [2] | Initial water content ([2]; before storage) | stability (degradation, related substances by HPLC) [1, 4] | Hygroscopicity (water content) ([2]; 2 weeks 43 % rh) | Hygroscopicity (water content) ([2]; 2 weeks 75 % rh) | Hygroscopicity (water content) ([2]; 2 weeks 93 % rh) | Initial water content ([2]; before humidity storage) | other results
N[C@@H](CC(=O)N1CCn2c(nnc2C(F)(F)F)C1)Cc1cc(F)c(F)cc1F [N: Mesylate II] | 0.16% | 0.16% | 0.08% | 0.08% | 0.12% | 0.07% | 0.11% | 0.11% | 2.89% | 3.37% | 4.04% | 2.08% |  |  |  |  |  | 
N[C@@H](CC(=O)N1CCn2c(nnc2C(F)(F)F)C1)Cc1cc(F)c(F)cc1F [A: Phosphate, Sitagliptin Phosphate] | 0.21% | 0.50% | 0.31% | 0.16% | 0.38% | 0.57% | 0.37% | 0.39% |  |  |  |  | stable | 0.41% | 0.48% | 0.82% | 0.46% | stability (degradation, related substances by HPLC) [1, 3]: stable; stability (degradation, related substances by HPLC) [1, 5]: stable; change during the hygroscopicity studies [2]: did not show much change
N[C@@H](CC(=O)N1CCn2c(nnc2C(F)(F)F)C1)Cc1cc(F)c(F)cc1F [E: Sulfate I, Sitagliptin Sulfate Form I] | 0.10% | 0.08% | 0.02% | 0.06% | 0.02% | 0.03% | 0.08% | 0.08% |  |  |  |  |  | 1.12% | 1.0% | 2.81% | 0.69% | stability (degradation, related substances by HPLC) ([1]; closed bottle, four weeks at 60 °C, listed as sulfate (solvated)): stable; stability (degradation, related substances by HPLC) ([1]; closed bottle, two weeks at 60 °C, listed as sulfate (solvated)): stable
N[C@@H](CC(=O)N1CCn2c(nnc2C(F)(F)F)C1)Cc1cc(F)c(F)cc1F [maleate, sitagliptin maleate] |  |  |  |  |  |  |  |  |  |  |  |  |  |  |  |  |  | stability (degradation, related substances by HPLC) [1, 3]: showed a degradation; change during the hygroscopicity studies [2]: did not show much change
N[C@@H](CC(=O)N1CCn2c(nnc2C(F)(F)F)C1)Cc1cc(F)c(F)cc1F [maleate (solvated), Sitagliptin Maleate Form I] |  |  |  |  |  |  |  |  |  |  |  |  | degradation was observed |  |  |  |  | 
N[C@@H](CC(=O)N1CCn2c(nnc2C(F)(F)F)C1)Cc1cc(F)c(F)cc1F [B: HCl I, Sitagliptin Hydrochloride Form I] | 0.05% | 0.01% | 0.01% | 0.01% | 0.01% | 0.14% | 0.15% | 0.04% |  |  |  |  |  | 3.86% | 4.36% | 4.49% | 1.4% | stability (degradation, related substances by HPLC) ([1]; closed bottle, four weeks at 60 °C, listed as HCl form I): stable; stability (degradation, related substances by HPLC) ([1]; closed bottle, two weeks at 60 °C, listed as HCl form I): stable; stability (degradation, related substances by HPLC) ([1]; open bottle, twelve weeks at 40 °C and 75 % RH, listed as HCl form I): stable
N[C@@H](CC(=O)N1CCn2c(nnc2C(F)(F)F)C1)Cc1cc(F)c(F)cc1F [Q : HCl II] |  |  |  |  |  |  |  |  | 0.32% | 0.44% | 0.83% | 0.27% |  |  |  |  |  | 
N[C@@H](CC(=O)N1CCn2c(nnc2C(F)(F)F)C1)Cc1cc(F)c(F)cc1F [Base, 7-[(3R)-3-amino-1-oxo-4-(2,4,5-trifluorophenyl)butyl)-5,6,7,8-tetrahydro-3-(trifluoromethyl)-1,2,4-triazolo[4,3-a]pyrazine, reference compound] | 0.27% | 0.37% | 0.46% | 0.39% | 0.46% | 0.52% | 0.39% | 0.36% |  |  |  |  |  | 0.19% | 0.22% | 0.3% | 0.19% | stability (degradation, related substances by HPLC) ([1]; closed bottle, four weeks at 60 °C, listed as free base): stable; stability (degradation, related substances by HPLC) ([1]; closed bottle, two weeks at 60 °C, listed as free base): stable; stability (degradation, related substances by HPLC) ([1]; open bottle, twelve weeks at 40 °C and 75 % RH, listed as free base): stable; change during the hygroscopicity studies ([2]; listed as free base): did not show much change
N[C@@H](CC(=O)N1CCn2c(nnc2C(F)(F)F)C1)Cc1cc(F)c(F)cc1F [maleate (non solvated), Sitagliptin Maleate Form II] |  |  |  |  |  |  |  |  |  |  |  |  | stable |  |  |  |  | 
N[C@@H](CC(=O)N1CCn2c(nnc2C(F)(F)F)C1)Cc1cc(F)c(F)cc1F [H: Glycolate] | 0.24% | 1.81% | 0.49% | 0.61% | 4.06% | 1.09% | 0.99% | 0.05% | 2.24 ss % | β 4.81% | 24.85** % | 1.039% |  |  |  |  |  | 
N[C@@H](CC(=O)N1CCn2c(nnc2C(F)(F)F)C1)Cc1cc(F)c(F)cc1F [J: Mesylate II] |  |  |  |  |  |  |  |  | 2.58% | 2.94% | 3.23% | 1.47% |  |  |  |  |  | 
N[C@@H](CC(=O)N1CCn2c(nnc2C(F)(F)F)C1)Cc1cc(F)c(F)cc1F [phosphate monohydrate, sitagliptin dihydrogenphosphate, reference compound] |  |  |  |  |  |  |  |  |  |  |  |  | stable |  |  |  |  | change during the hygroscopicity studies [2]: did not show much change
N[C@@H](CC(=O)N1CCn2c(nnc2C(F)(F)F)C1)Cc1cc(F)c(F)cc1F [C: Lactate, Sitagliptin Lactate] | 0.34% | 0.43% | 0.28% | 0.33% | 0.49% | 0.56% | 0.59% | 0.16% |  |  |  |  | degradation was observed | 0.54% | 0.5% | 28.77 * % | 0.51% | stability (degradation, related substances by HPLC) [1, 3]: showed a degradation; stability (degradation, related substances by HPLC) [1, 5]: shows degradation
N[C@@H](CC(=O)N1CCn2c(nnc2C(F)(F)F)C1)Cc1cc(F)c(F)cc1F [Q: HCl II] | 0.36% | 0.23% | 0.30% | 0.53% | 0.30% | 0.34% | 0.44% | 0.20% |  |  |  |  |  |  |  |  |  | 
N[C@@H](CC(=O)N1CCn2c(nnc2C(F)(F)F)C1)Cc1cc(F)c(F)cc1F [M: Phosphate H2O] | 0.10% | 0.12% | 0.08% | 0.09% | 0.06% | 0.09% | 0.12% | 0.08% |  |  |  |  |  |  |  |  |  | 
N[C@@H](CC(=O)N1CCn2c(nnc2C(F)(F)F)C1)Cc1cc(F)c(F)cc1F [K: Mesylate I] |  |  |  |  |  |  |  |  | 1.13% | 0.49% | 0.96% | 0.68% |  |  |  |  |  | 
